{
  "source": "patent US20120213789A1",
  "about": "“New Molecular Target for Treatment of Cancer” (priority 2001, published 2012)",
  "assay_type_in_all_cases": "cell-based, human",
  "key": {"C4-2B Prostate Cell Line": {"system": "C4-2B Prostate Cell Line", "assay": "Dual label UC28 C/AnnexinV flow cytometry after SPB treatment", "details": "for Total AnnexV / Total UC28C: 72 hours, UC28-GAR-CY5/AnnexV-FITC", "description": "(§1) Cells were grown to 70-80% confluence at 37° C. and 5% CO2 in T-75 tissue culture plastic flasks. SPB stock solution was added to final concentrations of 0.5, 5.0, 10.0, and 25.0 mM in appropriate fresh media to the cell cultures. Cells were incubated at 37° C. and 5% CO2 for 72 hours. Attached cells were then harvested using a solution of 0.05% trypsin and 0.53 mM EDTA (Invitrogen Corp.). Attached cells were then pooled with any the detached cells and washed with PBS pH 7.2. Cell numbers and percent viability were determined using Trypan blue dye exclusion and a hemacytometer. At the time of their use in an experiment the viability was usually about 85% for untreated cells and a range of about 15-70% for treated cells, with the lower viabilities found at higher SPB concentrations (Thompson C, 1995; Cory et al., 1998; van Engeland et al., 1996).\n(§2) VO1 Apoptosis Detection Kit contains: (1) Fluorocein-isothiocyante (FITC) conjugated AnnexinV [AnnexinV01] 1 ml (2) Propidium Iodide [Annex-Pi] 2.0 ml (3) 4× Binding Buffer [Annex-B] 20.0 ml. Vendor is CalTag Laboratories, Inc., 1849 Bayshore Boulevard #200 Burlingame, Calif. 94010.\n(§3) UC28(C) is 2.14 mg/ml rabbit polyclonal aliquot directed against the inventors' UC28 patented biomarker developed by UCor R&D gene discovery program. The Antibody was produced against a twenty amino acid (AA) synthetic peptide from the predicted AA sequence (AA 21-37) UCor, Inc. 840 Research Parkway Oklahoma City, Okla. 73104.\n(§4) Goat Anti-Rabbit CY5 polyclonal Fluorchrome was used as the secondary conjugate for UC28 C rabbit polyclonal antibody and a background control for UC28 C polyclonal. Vendor is Jackson ImmunoResearch Laboratories, Inc. 872 West Baltimore Pike, P.O. Box 9 West Grove, Pa. 19390.\n(§5) MsIgG-FITC mouse conjugated-FITC was used for background control for AnnexinV01. Vendor is Becicman Coulter, Inc. Diagnostic Division, 11800 SW 147th Ave. M/S 42-003, P.O. Box 169015, Miami, Floridia 33116-9015.\n(§6) A Coulter Elite engineered with a triple laser system was used to analyze all samples. Coulter control beads were used to align lasers for the dual label testing of cell samples. Laser alignment was required for both the Argon (488 nm line) laser and HeNe (633 nm line) laser. These alignments were performed prior to all measurements with the Argon laser (488 nm line) using fluorophores for FITC, RPE, PI and the HeNe laser (633 nm line) for the Cy5 fluorophores being used for the experiments described below. The histographs, voltage settings, gates, color compensation, and pressures were established prior to all sample processing. […]\n(§7) UC28 and Annexin V were co-labeled in the three cell lines to assess the induction of UC28 by SPB and its correlation to the induction of apoptosis. […] It may be noted that in previously published experiments, AnnexinV and PI were run in combination with several prostate cancer cell lines, one of which was LNCaP, but not with C4-2B or MLC-SV40. It was determined that they produced similar dose-response kinetics when exposed to 0.5-25 mM of SPB for 72 hours (Ng et al., 1989). That is, as the dose of SPB increased, so did the membrane perturbation events measured by these two methods."}, "LNCaP cell line": {"system": "LNCaP cell line", "assay": "Dose-response kinetics of UC28 protein expression by flow cytometry", "description": "(§8) Cells were grown to 70-80% confluence at 37° C. and 5% CO2 in T-75 tissue culture plastic flasks. SPB stock solution was added to final concentrations of 0.5, 5.0, 10.0, and 25.0 mM in appropriate fresh media to the cell cultures. Cells were incubated at 37° C. and 5% CO2 for 72 hours. Attached cells were then harvested using a solution of 0.05% trypsin and 0.53 mM EDTA (Invitrogen Corp.). Attached cells were then pooled with any the detached cells and washed with PBS pH 7.2. Cell numbers and percent viability were determined using Trypan blue dye exclusion and a hemacytometer. At the time of their use in an experiment the viability was usually about 85% for untreated cells and a range of about 15-70% for treated cells, with the lower viabilities found at higher SPB concentrations (Thompson C, 1995; Cory et al., 1998; van Engeland et al., 1996). UC28(C) is 2.14 mg/ml rabbit polyclonal aliquot directed against the inventors' UC28 patented biomarker developed by UCor R&D gene discovery program. The Antibody was produced against a twenty amino acid (AA) synthetic peptide from the predicted AA sequence (AA 21-37) UCor, Inc. 840 Research Parkway Oklahoma City, Okla. 73104. Goat Anti-Rabbit CY5 polyclonal Fluorchrome was used as the secondary conjugate for UC28 C rabbit polyclonal antibody and a background control for UC28 C polyclonal. Vendor is Jackson ImmunoResearch Laboratories, Inc. 872 West Baltimore Pike, P.O. Box 9 West Grove, Pa. 19390. A Coulter Elite engineered with a triple laser system was used to analyze all samples. Coulter control beads were used to align lasers for the dual label testing of cell samples. Laser alignment was required for both the Argon (488 nm line) laser and HeNe (633 nm line) laser. These alignments were performed prior to all measurements with the Argon laser (488 nm line) using fluorophores for FITC, RPE, PI and the HeNe laser (633 nm line) for the Cy5 fluorophores being used for the experiments described below. The histographs, voltage settings, gates, color compensation, and pressures were established prior to all sample processing. […] The data confirms the biological differences in these three cell lines and provides a stronger basis upon which to assess the behavior of the UC28 gene under the same SPB treatment conditions. For both of these experiments, supernatants were collected from the same experiments as in Example 1; cells were collected and assayed for apoptosis as well as for UC28 antigen expression using antibodies to SEQ ID NO:4."}, "C4-2B cell line": {"system": "C4-2B cell line", "assay": "Dose-response kinetics of UC28 protein expression by flow cytometry", "description": "as §8"}, "LNCaP Prostate Cell Line": {"system": "LNCaP Prostate Cell Line", "assay": "Dual label UC28/AnnexinV flow cytometry after SPB treatment", "details": "for Total AnnexV / Total UC28C: 72 hours, UC28-GAR-CY5/AnnexV-FITC", "description": "as §1, §2, §3, §4, §5, §6, §7"}},
  "data": [
    {"smiles": "O=C([O-])CCCc1ccccc1.[Na+]", "note": "[SPB, 4-Phenylbutyric Acid, Sodium Salt]", "values": [
      {"measurement": "Total AnnexV", "setting": "C4-2B Prostate Cell Line; 0.5 mM SPB", "value": 41.1, "unit": "%"},
      {"measurement": "Total UC28C", "setting": "C4-2B Prostate Cell Line; 0.5 mM SPB", "value": 29.8, "unit": "%"},
      {"measurement": "Total AnnexV", "setting": "C4-2B Prostate Cell Line; 5.0 mM SPB", "value": 94.0, "unit": "%"},
      {"measurement": "Total UC28C", "setting": "C4-2B Prostate Cell Line; 5.0 mM SPB", "value": 81.8, "unit": "%"},
      {"measurement": "Total AnnexV", "setting": "C4-2B Prostate Cell Line; 10 mM SPB", "value": 80.0, "unit": "%"},
      {"measurement": "Total UC28C", "setting": "C4-2B Prostate Cell Line; 10 mM SPB", "value": 88.0, "unit": "%"},
      {"measurement": "Total AnnexV", "setting": "C4-2B Prostate Cell Line; 25 mM SPB", "value": 82.3, "unit": "%"},
      {"measurement": "Total UC28C", "setting": "C4-2B Prostate Cell Line; 25 mM SPB", "value": 96.5, "unit": "%"},
      {"measurement": "UC28 up regulation", "setting": "C4-2B Prostate Cell Line; SPB, summary of Table 5", "value": "up regulated"},
      {"measurement": "induction of apoptosis", "setting": "C4-2B Prostate Cell Line; SPB, summary of Table 5", "value": "induced"},
      {"measurement": "UC28 membrane protein expression", "setting": "LNCaP cell line; 0.5 to 25 mM SPB, LNCaP", "value": "dramatically over expressing"},
      {"measurement": "URCO28 expression", "setting": "LNCaP cell line; LNCap treated with SPB", "value": "remained elevated"},
      {"measurement": "UC28 membrane protein expression", "setting": "C4-2B cell line; 0.5 to 25 mM SPB, C4-2B", "value": "dramatically over expressing"},
      {"measurement": "URCO28 expression", "setting": "C4-2B cell line; C4-2B treated with SPB", "value": "remained elevated"},
      {"measurement": "Total AnnexV", "setting": "LNCaP Prostate Cell Line; 0.5 mM SPB", "value": 10.6, "unit": "%"},
      {"measurement": "Total UC28C", "setting": "LNCaP Prostate Cell Line; 0.5 mM SPB", "value": 28.0, "unit": "%"},
      {"measurement": "Total AnnexV", "setting": "LNCaP Prostate Cell Line; 5.0 mM SPB", "value": 44.7, "unit": "%"},
      {"measurement": "Total UC28C", "setting": "LNCaP Prostate Cell Line; 5.0 mM SPB", "value": 55.8, "unit": "%"},
      {"measurement": "Total AnnexV", "setting": "LNCaP Prostate Cell Line; 10 mM SPB", "value": 33.6, "unit": "%"},
      {"measurement": "Total UC28C", "setting": "LNCaP Prostate Cell Line; 10 mM SPB", "value": 66.4, "unit": "%"},
      {"measurement": "Total AnnexV", "setting": "LNCaP Prostate Cell Line; 25 mM SPB", "value": 89.2, "unit": "%"},
      {"measurement": "Total UC28C", "setting": "LNCaP Prostate Cell Line; 25 mM SPB", "value": 67.4, "unit": "%"},
      {"measurement": "UC28 up regulation", "setting": "LNCaP Prostate Cell Line; SPB, summary of Table 5", "value": "up regulated"},
      {"measurement": "induction of apoptosis", "setting": "LNCaP Prostate Cell Line; SPB, summary of Table 5", "value": "induced"}
    ]}
  ]
}
